The values below come from the Biogen ADME set (Fang et al. 2023).

≈ marks a conversion by molar mass, not a printed value.

For the data set the following is noted: for aqueous solubility: pH 6.8.

With `O=C(NCC1CCC1)c1ccc(-n2ccnc2)nn1`, the MDR1-MDCK efflux ratio worked out at 0.616; the intrinsic clearance, human liver microsomes worked out at 8.32 mL/min/kg; the intrinsic clearance, rat liver microsomes amounted to 50.3 mL/min/kg; the aqueous solubility was found to be 34.1 µg/mL (≈ 133 µM).
For the molecule `Cn1cc(NC(=O)c2cnn3cccnc23)c(C2CCCCC2)n1`, the MDR1-MDCK efflux ratio was 1.23; the intrinsic clearance, human liver microsomes came to 37.7 mL/min/kg; the intrinsic clearance, rat liver microsomes is 188 mL/min/kg.
`Cc1noc(CC2CCN(Cc3cccnc3)CC2)n1` showed an intrinsic clearance, human liver microsomes of 5.69 mL/min/kg and an intrinsic clearance, rat liver microsomes of 48.9 mL/min/kg.
Regarding `O=c1[nH]nc(CCCN2CCOCC2)n1-c1cccc(Cl)c1`, the MDR1-MDCK efflux ratio came out at 25.6; the intrinsic clearance, human liver microsomes is at most 4.74 mL/min/kg; the intrinsic clearance, rat liver microsomes turned out to be 28.1 mL/min/kg; the aqueous solubility amounted to 40.4 µg/mL (≈ 125 µM).
In the case of `CNc1cc(Nc2cccn(-c3ccccn3)c2=O)nn2c(C(=O)N[C@@H]3C[C@@H]3F)cnc12`, the MDR1-MDCK efflux ratio worked out at 31.1; the fraction unbound, human plasma came to 0.098; the fraction unbound, rat plasma came out at 0.033; the intrinsic clearance, human liver microsomes was at most 4.74 mL/min/kg. This molecule also displayed an intrinsic clearance, rat liver microsomes of 24.7 mL/min/kg and an aqueous solubility of 1.23 µg/mL (≈ 2.83 µM).
In turn, `CCOc1ccc(NC(=O)c2ccc3c(c2)NC(=O)CO3)cc1` registered an intrinsic clearance, human liver microsomes of at most 4.74 mL/min/kg and an intrinsic clearance, rat liver microsomes of 459 mL/min/kg.
In the case of `CCOC(=O)c1ccc(N2CCSCC2)nc1`, the MDR1-MDCK efflux ratio worked out at 0.309; the intrinsic clearance, human liver microsomes was 411 mL/min/kg; the intrinsic clearance, rat liver microsomes was found to be 2980 mL/min/kg.
`Cc1nnc(N2CCC(CNc3ccc(C#N)cn3)C2)c(C#N)c1C` (stereo unspecified): the aqueous solubility was 8.15 µg/mL (≈ 24.4 µM).
Regarding `COc1cc2ncn(-c3cc(OCc4ccccc4S(C)(=O)=O)c(C#N)s3)c2cc1OC`, the MDR1-MDCK efflux ratio is 8.01 and the aqueous solubility is 0.3 µg/mL (≈ 0.639 µM).
For the molecule `CCc1nccn1Cc1nc(N)nc(N(C)C)n1`, the MDR1-MDCK efflux ratio came out at 18.5; the intrinsic clearance, human liver microsomes was at most 4.74 mL/min/kg; the intrinsic clearance, rat liver microsomes was 17.3 mL/min/kg.
`Nc1nn(C(=O)Cc2ccc(F)cc2)c2cccc(F)c12` displayed an intrinsic clearance, human liver microsomes of 16.7 mL/min/kg and an intrinsic clearance, rat liver microsomes of 62.9 mL/min/kg.
As for `CN1CC(=O)N(CCCC(=O)Nc2cccc(C#Cc3cccs3)c2)C1=O`, the MDR1-MDCK efflux ratio was found to be 4.28; the intrinsic clearance, human liver microsomes amounted to 19.7 mL/min/kg; the intrinsic clearance, rat liver microsomes was found to be 738 mL/min/kg; the aqueous solubility was determined as 43.2 µg/mL (≈ 113 µM).
Consider `O=C(CCCc1nnc(-c2ccccc2)o1)Nc1cccc2ccccc12`, for which the MDR1-MDCK efflux ratio was determined as 0.976; the intrinsic clearance, human liver microsomes was 71.6 mL/min/kg; the intrinsic clearance, rat liver microsomes turned out to be 1150 mL/min/kg; the aqueous solubility was 1.31 µg/mL (≈ 3.67 µM).
On the same counts, the results for `O=C(/C=C/c1ccc(Cl)cc1)N1CCC2(CC1)CN(Cc1ccc(Cl)c(Cl)c1)C(=O)O2` are 2.5, 22.8 mL/min/kg, 474 mL/min/kg and 2.15 µg/mL (≈ 4.48 µM).
Turning to `Cc1cc(C(=O)NCC2CCC3(CC2)OCCO3)[nH]n1`, the MDR1-MDCK efflux ratio came out at 4.03; the intrinsic clearance, human liver microsomes is at most 4.74 mL/min/kg; the intrinsic clearance, rat liver microsomes turned out to be 99.2 mL/min/kg.
For the molecule `C#CCN1CCC[C@H]1C(=O)Nc1cnn(-c2ncccn2)c1`, the MDR1-MDCK efflux ratio turned out to be 3.95; the intrinsic clearance, human liver microsomes was at most 4.74 mL/min/kg; the intrinsic clearance, rat liver microsomes came out at 83.4 mL/min/kg; the aqueous solubility is 45.1 µg/mL (≈ 152 µM).
In the case of `Cc1ccc(S(=O)(=O)Nc2ccc3c(c2)c(C(=O)C(F)(F)F)cn3CC(=O)N[C@@H](CC(C)C)C(=O)O)cc1`, the MDR1-MDCK efflux ratio was found to be 20 and the aqueous solubility turned out to be 80.4 µg/mL (≈ 145 µM).
`COc1ccccc1/C=C/CN1C[C@H]2CCCN2C[C@@H]1C`: the MDR1-MDCK efflux ratio was determined as 0.741; the intrinsic clearance, human liver microsomes is 16.8 mL/min/kg; the intrinsic clearance, rat liver microsomes is 1450 mL/min/kg.
As to `C#CCN1CCN(Cc2nc(O)cc(C(F)(F)F)n2)CC1`, the intrinsic clearance, human liver microsomes was at most 4.74 mL/min/kg; the intrinsic clearance, rat liver microsomes was at most 10.7 mL/min/kg; the aqueous solubility stood at 42.9 µg/mL (≈ 143 µM).
With `CC1(C)CC[C@]2(C(=O)O)CC[C@]3(C)C(C(=O)C=C4[C@@]5(C)C=C(C#N)C(=O)C(C)(C)[C@@H]5CC[C@]43C)C2C1` (stereo partly specified), the aqueous solubility was 63.5 µg/mL (≈ 129 µM).
As to `CCCCOc1ccc(-c2cc3c(=O)[nH]ccn3n2)cc1`, the MDR1-MDCK efflux ratio is 0.743 and the aqueous solubility came to 0.2 µg/mL (≈ 0.706 µM).
In turn, `Cc1cccc(NC(=O)c2noc3c2CCCC3)n1` had an intrinsic clearance, human liver microsomes of 197 mL/min/kg; an intrinsic clearance, rat liver microsomes of 1070 mL/min/kg; an aqueous solubility of 17.1 µg/mL (≈ 66.3 µM).
With `Cc1noc(-c2ccc(-c3ccc(CC(=O)O)cc3)cc2)c1NC(=O)O[C@H](C)c1ccccc1Cl`, the MDR1-MDCK efflux ratio was determined as 7.69; the intrinsic clearance, human liver microsomes is at most 4.74 mL/min/kg; the intrinsic clearance, rat liver microsomes is 19.5 mL/min/kg; the aqueous solubility worked out at 10.4 µg/mL (≈ 21.2 µM).
On the same counts, the results for `O=C(Cc1cccc2ccccc12)NCc1nnc2n1-c1ccccc1CC2` are 45, 239 mL/min/kg, 1730 mL/min/kg and 46.7 µg/mL (≈ 127 µM).
With `CCN1CCN(S(=O)(=O)Cc2ccc(Cl)c(Cl)c2)CC1`, the MDR1-MDCK efflux ratio worked out at 0.41; the fraction unbound, human plasma came out at 0.177; the fraction unbound, rat plasma came to 0.118; the intrinsic clearance, human liver microsomes came to 82.8 mL/min/kg. In addition, the intrinsic clearance, rat liver microsomes was 1440 mL/min/kg and the aqueous solubility came out at 25.7 µg/mL (≈ 76.2 µM).
Consider `CC1CCN(CCNC(=O)c2ccncc2)CC1`, for which the MDR1-MDCK efflux ratio is 2.3; the intrinsic clearance, human liver microsomes was at most 4.74 mL/min/kg; the intrinsic clearance, rat liver microsomes amounted to 490 mL/min/kg; the aqueous solubility turned out to be 34.2 µg/mL (≈ 138 µM).
On the same counts, the results for `COc1cccc(-c2ccc(C(=O)N(C)Cc3c(C)nn(C(C)C)c3C)o2)c1` are 1.47, 264 mL/min/kg, 1960 mL/min/kg and 47 µg/mL (≈ 123 µM).
On to `COc1cc2c(NC3CCN(C(C)C)CC3)nc(N3CCC(F)(F)CC3)nc2cc1OCCCN1CCCC1`, for which the intrinsic clearance, human liver microsomes is at most 4.74 mL/min/kg; the intrinsic clearance, rat liver microsomes turned out to be 26.3 mL/min/kg; the aqueous solubility was determined as 64.8 µg/mL (≈ 119 µM).
On to `CNCc1cc(N(C)C)nc(C2CCCN2C(=O)COc2ccc(F)cc2)n1` (stereo unspecified), for which the MDR1-MDCK efflux ratio turned out to be 46.7; the intrinsic clearance, human liver microsomes is at most 4.74 mL/min/kg; the intrinsic clearance, rat liver microsomes was determined as 244 mL/min/kg.
`Oc1cc(F)ccc1-c1nc(-c2ccncc2)no1` had an intrinsic clearance, human liver microsomes of 42.9 mL/min/kg and an intrinsic clearance, rat liver microsomes of 334 mL/min/kg.
Regarding `Cc1cc(-c2cn(C)nc2[C@H]2CC[C@H](CNC(=O)C(C)C)CC2)on1`, the MDR1-MDCK efflux ratio came out at 30.3; the intrinsic clearance, human liver microsomes was at most 4.74 mL/min/kg; the intrinsic clearance, rat liver microsomes worked out at 268 mL/min/kg.
The matching figures for `CCN(CCOC)C(=O)Nc1ccc2occc(=O)c2c1`: 1.32, 9.83 mL/min/kg and 32.7 mL/min/kg.
As to `CC(C)(C)Cc1nnc(-c2cnc3onc(C4CCCC4)c3c2)o1`, the aqueous solubility was found to be 3.99 µg/mL (≈ 12.2 µM).
As for `COc1ccccc1-c1ccc(CC2(C(=O)NC3CC3)CCOCC2)cc1`, the MDR1-MDCK efflux ratio worked out at 1.89; the intrinsic clearance, human liver microsomes turned out to be 81.4 mL/min/kg; the intrinsic clearance, rat liver microsomes was 2150 mL/min/kg; the aqueous solubility is 41.8 µg/mL (≈ 114 µM).
On the same counts, the results for `Cn1c(-c2ccc(F)cc2)cnc1NC(=O)CCC(=O)N1CC(=O)Nc2ccccc21` are 48.2, 40.5 mL/min/kg, 322 mL/min/kg and 61.3 µg/mL (≈ 145 µM).
On to `Cc1nc2cc(-c3nccn3C)nn2c(NCCCN(C)C)c1C`, for which the MDR1-MDCK efflux ratio was 67.6; the intrinsic clearance, human liver microsomes is at most 4.74 mL/min/kg; the intrinsic clearance, rat liver microsomes is 601 mL/min/kg.
`COc1ccc(S(=O)(=O)N2CCC(N3CCC(C)CC3)CC2)cc1` yielded an aqueous solubility of 56.4 µg/mL (≈ 160 µM).
Molecule `Cc1cccc(/C=N/Nc2cc(N3CCOCC3)n3nc(-c4ccncc4)cc3n2)c1` registered an intrinsic clearance, human liver microsomes of 32.1 mL/min/kg.
As to `CN(C)c1cncc(-c2ccc(C(=O)NC(C)(C)C)cc2)n1`, the MDR1-MDCK efflux ratio amounted to 0.697; the intrinsic clearance, human liver microsomes came to 18.7 mL/min/kg; the intrinsic clearance, rat liver microsomes came out at 483 mL/min/kg.
As to `CCCc1nnc(NCc2cn3ccc(C)cc3n2)o1`, the MDR1-MDCK efflux ratio was 3.5; the intrinsic clearance, human liver microsomes was at most 4.74 mL/min/kg; the intrinsic clearance, rat liver microsomes stood at 34 mL/min/kg; the aqueous solubility was 21.9 µg/mL (≈ 80.9 µM).
Turning to `CNC(=O)Cc1cccc(OCCN2CCCCC2)c1`, the MDR1-MDCK efflux ratio was found to be 11.8; the intrinsic clearance, human liver microsomes is at most 4.74 mL/min/kg; the intrinsic clearance, rat liver microsomes amounted to 57.3 mL/min/kg.
`Cc1ccc(-n2nc(C(C)(C)C)cc2NC(=O)NCc2cc(F)ccc2Oc2ccc3c(cnn3CCO)c2)cc1`: the MDR1-MDCK efflux ratio worked out at 16.2 and the aqueous solubility worked out at 0.2 µg/mL (≈ 0.359 µM).
`Cc1cc(F)c(C(=O)Nc2cccc(-c3nncn3C(C)C)n2)cc1-n1cnc(C2CC2)c1` returned an aqueous solubility of 64.8 µg/mL (≈ 145 µM).
The molecule `CC(C)CCN1CCn2c1nc1c2c(=O)n(C)c(=O)n1C` registered an intrinsic clearance, human liver microsomes of 26.3 mL/min/kg; an intrinsic clearance, rat liver microsomes of 99.7 mL/min/kg; an aqueous solubility of 46.6 µg/mL (≈ 160 µM).
As for `CN(C(=O)C1CCN(c2ncccn2)CC1)C1CCCCCCC1`, the MDR1-MDCK efflux ratio stood at 0.85; the intrinsic clearance, human liver microsomes amounted to 519 mL/min/kg; the intrinsic clearance, rat liver microsomes is 3890 mL/min/kg; the aqueous solubility was found to be 49.4 µg/mL (≈ 150 µM).
The matching figures for `Fc1ccc(F)c(CN2CCN(Cc3ccc4c(c3)OCO4)CC2)c1`: 0.645, 105 mL/min/kg, 409 mL/min/kg and 26.9 µg/mL (≈ 77.7 µM).
For `Cc1ccc(Oc2ccc(N)cc2)nn1`, the MDR1-MDCK efflux ratio came out at 0.725; the intrinsic clearance, human liver microsomes was at most 4.74 mL/min/kg; the intrinsic clearance, rat liver microsomes was at most 10.7 mL/min/kg.
As to `CN1C(=O)[C@H](Cc2ccccc2)N[C@@H]1C(C)(C)C`, the MDR1-MDCK efflux ratio was determined as 0.771; the intrinsic clearance, human liver microsomes came out at 53.9 mL/min/kg; the intrinsic clearance, rat liver microsomes was found to be 747 mL/min/kg; the aqueous solubility is 30.3 µg/mL (≈ 123 µM).
